In brackets after ≈: the same amount, converted by molar mass. Where two headings read alike, the source gives them in different places.
Experiments:
Format in all cases: cell-based
[1] = test system: Spn1537 S. pneumoniae ermB positive mefA positive; test: broth dilution MIC, S. pneumoniae Spn1537; conditions: Streptococcus pneumoniae
Excerpt: (§1) We have collected MIC data for a total of 50 novel macrolides that this platform has produced against over 21 unique strains of B. subtilis, E. coli, S. aureus, S. pneumoniae, and H. influenzae, including several multidrug-resistant strains, with a special focus on macrolide resistant mechanisms (vide supra). Azithromycin was included as a control macrolide. CLSI standard procedures for broth dilution MIC determination were used. […] These genotypes can be constitutive or inducible. The finding that C4-epi (unnatural) isomers of the “azaketolide” macrolide class have enhanced activities relative to C4 natural isomers is very exciting.

[2] = test system: Spn1533 S. pneumoniae ermB positive mefA positive; test: broth dilution MIC, S. pneumoniae Spn1533; conditions: Streptococcus pneumoniae
Excerpt: as §1

[3] = test system: Spn1509 S. pneumoniae ermB positive mefA negative; test: broth dilution MIC, S. pneumoniae Spn1509; conditions: Streptococcus pneumoniae; Spn1509 S. pneumoniae ermB positive mefA negative; read-out: MIC
Excerpt: as §1

[4] = test system: Spn 106 S. pneumonia ATCC49619; test: broth dilution MIC, S. pneumoniae Spn 106; conditions: Streptococcus pneumoniae
Excerpt: as §1

[5] = test system: Spn1427 S. pneumoniae ermB positive mefA negative; test: broth dilution MIC, S. pneumoniae Spn1427; conditions: Streptococcus pneumoniae
Excerpt: as §1

[6] = test system: SA557 S. aureus ermA unknown msrA positive; test: broth dilution MIC, S. aureus SA557; conditions: Staphylococcus aureus; SA557 S. aureus ermA unknown msrA positive; read-out: MIC
Excerpt: as §1

HI281 H. influenzae = test: broth dilution MIC, H. influenzae HI281; conditions: Haemophilus influenzae
Excerpt: as §1

[7] = test system: Spn160 S. pneumoniae ermB unknown mefA positive; test: broth dilution MIC, S. pneumoniae Spn160; conditions: Streptococcus pneumoniae; Spn160 S. pneumoniae ermB unknown mefA positive; read-out: MIC
Excerpt: as §1

[8] = test system: SA101 S. aureus ATCC29213; test: broth dilution MIC, S. aureus SA101; conditions: Staphylococcus aureus, ATCC29213, SA101 S. aureus ATCC29213; read-out: MIC
Outline: (§2)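 Read-out is the minimum inhibitory concentration, obtained by broth dilution per CLSI standards. The strain panel included multidrug-resistant isolates carrying macrolide-resistance genotypes, which may be constitutive or inducible.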

[9] = test system: SA1708 S. aureus ermA positive msrA negative; test: broth dilution MIC, S. aureus SA1708; conditions: Staphylococcus aureus
Excerpt: as §1

[10] = test system: SA183 S. aureus ermA positive msrA unknown; test: broth dilution MIC, S. aureus SA183; conditions: Staphylococcus aureus
Excerpt: as §1

[11] = test system: HI175 H. influenzae ATCC49247; test: broth dilution MIC, H. influenzae HI175; conditions: Haemophilus influenzae
Excerpt: as §1

[12] = test system: SA506 S. aureus ermA positive msrA unknown; test: broth dilution MIC, S. aureus SA506; conditions: Staphylococcus aureus
Excerpt: as §1

[13] = test system: SA1707 S. aureus ermA negative msrA positive; test: broth dilution MIC, S. aureus SA1707; conditions: Staphylococcus aureus
Excerpt: as §1

[14] = test system: SA418 S. aureus ermA negative msrA positive; test: broth dilution MIC, S. aureus SA418; conditions: Staphylococcus aureus
Excerpt: as §1

A. baumannii strains = test: MIC against A. baumannii strains (Table M8); conditions: Acinetobacter baumannii, BAA747, A. baumannii BAA747-1
E. coli strains = test: MIC against E. coli strains (Table M7); conditions: Escherichia coli, ATCC25922, E. coli ATCC 25922
Outline: as §2

K. pneumoniae strains = test: MIC against K. pneumoniae strains (Table M8); conditions: Klebsiella pneumoniae, K. pneumoniae 10031
S. pneumoniae strains = test: MIC against S. pneumoniae strains (Tables M7, M8); conditions: for MIC: Streptococcus pneumoniae
Excerpt: CLSI standard procedures for broth dilution MIC determination were used. […] These genotypes can be constitutive or inducible.

S. aureus strains = test: MIC against S. aureus strains (Table M7); conditions: for MIC: Staphylococcus aureus
Outline: as §2

E. faecalis strains = test: MIC against E. faecalis strains (Table M8); conditions: Enterococcus faecalis, E. faecalis 29212
H. influenzae strains = test: MIC against H. influenzae strains (Table M8); conditions: Haemophilus influenzae
Outline: as §2

[15] = Spn 106 S. pneumonia ATCC49619, read-out: MIC
[16] = S. pneumoniae 160, read-out: MIC S. pneumonae (160)
[17] = S. pneumoniae 1509, read-out: MIC S. pneumoniae (1509)
[18] = S. pneumoniae 1533, read-out: MIC S. pneumoniae (1533)
[19] = S. pneumoniae 1537, read-out: MIC S. pneumoniae (1537)
[20] = S. pneumoniae 49619, read-out: MIC S. pneumoniae (49619)
[21] = ATCC29213, S. aureus ATCC 29213, read-out: MIC S. aureus (ATCC 29213)
[22] = S. aureus 506, read-out: MIC S. aureus (506)
[23] = S. aureus 1708, read-out: MIC S. aureus (1708)
[24] = USA300, S. aureus USA300, read-out: MIC S. aureus (USA300)
[25] = H. influenzae 49247, read-out: MIC H. influenzae (49247)
[26] = H. influenzae 49766, read-out: MIC H. influenzae (49766)

| MIC [4, 15] | Compound | MIC [1] | MIC [2] | MIC [3] | MIC [5] | MIC [6] | MIC (HI281 H. influenzae) | MIC [7] | MIC [8] | MIC [9] | MIC [10] | MIC [11] | MIC [12] | MIC [13] | MIC [14] | MIC (A. baumannii strains) | MIC (E. coli strains) | MIC (K. pneumoniae strains) | MIC (S. pneumoniae strains; [16]) | MIC (S. pneumoniae strains; [17]) | further results |
| --- | --- | --- | --- | --- | --- | --- | --- | --- | --- | --- | --- | --- | --- | --- | --- | --- | --- | --- | --- | --- | --- |
| 8 µg/mL (≈ 9.66 µM) | CC[C@H]1OC(=O)[C@H](C)C(=O)[C@H](C)[C@@H](O[C@@H]2OC(C)CC(N(C)C)C2O)[C@](C)(OC)C[C@@H](C)C(=O)N[C@H](C)[C@H]2N(CCCCn3cc(-c4ccccn4)nn3)C(=O)O[C@]12C (stereo partly drawn) [FSM-20781] | > 32 µg/mL | > 32 µg/mL | > 32 µg/mL | > 32 µg/mL | > 32 µg/mL | 32 µg/mL (≈ 38.6 µM) | > 32 µg/mL | > 32 µg/mL | > 32 µg/mL | > 32 µg/mL | > 32 µg/mL | > 32 µg/mL | > 32 µg/mL | > 32 µg/mL |  |  |  |  |  |  |
|  | CC[C@H]1OC(=O)C(C)C(=O)[C@@H](C)[C@@H](O[C@@H]2OC(C)CC(N(C)C)C2O)[C@](C)(OC)C[C@@H](C)CN[C@H](C)[C@H]2N(CCCCn3cc(-c4cccc(N)c4)nn3)C(=O)O[C@]12C (stereo partly drawn) [FSM-20789] | > 32 µg/mL | > 32 µg/mL | 1 µg/mL (≈ 1.21 µM) | 8 µg/mL (≈ 9.66 µM) | 2 µg/mL (≈ 2.42 µM) | 8 µg/mL (≈ 9.66 µM) | 0.25 µg/mL (≈ 0.302 µM) | 2 µg/mL (≈ 2.42 µM) | 2 µg/mL (≈ 2.42 µM) | > 32 µg/mL | 4 µg/mL (≈ 4.83 µM) | > 32 µg/mL | 4 µg/mL (≈ 4.83 µM) | 4 µg/mL (≈ 4.83 µM) | 32 µg/mL (≈ 38.6 µM) | 16 µg/mL (≈ 19.3 µM) | 4 µg/mL (≈ 4.83 µM) | 0.5 µg/mL (≈ 0.604 µM) | 4 µg/mL (≈ 4.83 µM) | MIC ([4]; ATCC49619): 0.0625 µg/mL (≈ 0.0755 µM); MIC (S. pneumoniae strains; [18]): > 32 µg/mL; MIC (S. pneumoniae strains; [19]): > 32 µg/mL; MIC (S. pneumoniae strains; [20]): 0.125 µg/mL (≈ 0.151 µM); MIC (S. aureus strains; [21]): 2 µg/mL (≈ 2.42 µM); MIC (S. aureus strains; [22]): > 32 µg/mL; MIC (S. aureus strains; [23]): 2 µg/mL (≈ 2.42 µM); MIC (S. aureus strains; [24]): 4 µg/mL (≈ 4.83 µM); MIC (E. faecalis strains): 0.5 µg/mL (≈ 0.604 µM); MIC (H. influenzae strains; [25]): 2 µg/mL (≈ 2.42 µM); MIC (H. influenzae strains; [26]): 8 µg/mL (≈ 9.66 µM) |
| ≤ 0.0156 µg/mL | CC[C@H]1OC(=O)C(C)(F)C(=O)[C@H](C)[C@@H](O[C@@H]2OC(C)CC(N(C)C)C2O)[C@](C)(OC)C[C@@H](C)CN(C)[C@H](C)[C@H]2N(CCCCn3cc(-c4cccc(N)c4)nn3)C(=O)O[C@]12C (stereo partly drawn) [FSM-20797] | > 32 µg/mL | > 32 µg/mL | 4 µg/mL (≈ 4.65 µM) | 32 µg/mL (≈ 37.2 µM) | 8 µg/mL (≈ 9.3 µM) | 32 µg/mL (≈ 37.2 µM) | 0.125 µg/mL (≈ 0.145 µM) | 4 µg/mL (≈ 4.65 µM) | 8 µg/mL (≈ 9.3 µM) | > 32 µg/mL | 8 µg/mL (≈ 9.3 µM) | > 32 µg/mL | 8 µg/mL (≈ 9.3 µM) | 4 µg/mL (≈ 4.65 µM) | > 32 µg/mL | 32 µg/mL (≈ 37.2 µM) | 8 µg/mL (≈ 9.3 µM) | 0.25 µg/mL (≈ 0.291 µM) | 16 µg/mL (≈ 18.6 µM) | MIC (S. pneumoniae strains; [18]): > 32 µg/mL; MIC (S. pneumoniae strains; [19]): > 32 µg/mL; MIC (S. pneumoniae strains; [20]): 0.5 µg/mL (≈ 0.581 µM); MIC (S. aureus strains; [21]): 8 µg/mL (≈ 9.3 µM); MIC (S. aureus strains; [22]): > 32 µg/mL; MIC (S. aureus strains; [23]): 8 µg/mL (≈ 9.3 µM); MIC (S. aureus strains; [24]): 8 µg/mL (≈ 9.3 µM); MIC (E. faecalis strains): 1 µg/mL (≈ 1.16 µM); MIC (H. influenzae strains; [25]): 4 µg/mL (≈ 4.65 µM); MIC (H. influenzae strains; [26]): 16 µg/mL (≈ 18.6 µM) |

| Compound | MIC [4, 15] | MIC [1] | MIC [2] | MIC [3] | MIC [5] | MIC [6] | MIC (HI281 H. influenzae) | MIC [7] | MIC [8] | MIC [9] | MIC [10] | MIC [11] | MIC [12] | MIC [13] | MIC [14] | MIC (A. baumannii strains) | MIC (E. coli strains) | MIC (K. pneumoniae strains) | MIC (S. pneumoniae strains; [16]) | MIC (S. pneumoniae strains; [17]) | further results |
| --- | --- | --- | --- | --- | --- | --- | --- | --- | --- | --- | --- | --- | --- | --- | --- | --- | --- | --- | --- | --- | --- |
| CC[C@H]1OC(=O)C(C)(F)C(=O)[C@H](C)[C@@H](O[C@@H]2OC(C)CC(N(C)C)C2O)[C@](C)(OC)C[C@@H](C)CN[C@H](C)[C@H]2N(CCCCn3cc(-c4cccc(N)c4)nn3)C(=O)O[C@]12C (stereo partly drawn) [FSM-20795] | ≤ 0.0156 µg/mL | 32 µg/mL (≈ 37.8 µM) | 16 µg/mL (≈ 18.9 µM) | 0.125 to 0.25 µg/mL (≈ 0.148 to 0.295 µM) | 1 to 2 µg/mL (≈ 1.18 to 2.36 µM) | 0.25 to 0.5 µg/mL (≈ 0.295 to 0.591 µM) | 4 to 8 µg/mL (≈ 4.73 to 9.46 µM) | 0.0312 µg/mL (≈ 0.0369 µM) | 0.25 to 0.5 µg/mL (≈ 0.295 to 0.591 µM) | 0.5 µg/mL (≈ 0.591 µM) | > 32 µg/mL | 1 to 2 µg/mL (≈ 1.18 to 2.36 µM) | > 32 µg/mL | 0.5 to 1 µg/mL (≈ 0.591 to 1.18 µM) | 0.5 to 1 µg/mL (≈ 0.591 to 1.18 µM) | 16 µg/mL (≈ 18.9 µM) | 4 µg/mL (≈ 4.73 µM) | 2 µg/mL (≈ 2.36 µM) | ≤ 0.0625 µg/mL | 0.5 µg/mL (≈ 0.591 µM) | MIC S. pneumoniae (1509) (S. pneumoniae strains; S. pneumoniae 1509): 1 µg/mL (≈ 1.18 µM); MIC (S. pneumoniae strains; [18]): > 32 µg/mL; MIC (S. pneumoniae strains; [19]): > 32 µg/mL; MIC (S. pneumoniae strains; [20]): ≤ 0.0625 µg/mL; MIC S. aureus (1708) (S. aureus strains; S. aureus 1708): 0.5 µg/mL (≈ 0.591 µM); MIC (S. aureus strains; [21]): 0.5 µg/mL (≈ 0.591 µM); MIC (S. aureus strains; S. aureus 183, read-out: MIC S. aureus (183)): > 32 µg/mL; MIC (S. aureus strains; [22]): > 32 µg/mL; MIC (S. aureus strains; [23]): 0.25 µg/mL (≈ 0.295 µM); MIC (S. aureus strains; [24]): 1 µg/mL (≈ 1.18 µM); MIC (E. faecalis strains): 0.125 µg/mL (≈ 0.148 µM); MIC (H. influenzae strains; [25]): 0.5 µg/mL (≈ 0.591 µM); MIC (H. influenzae strains; [26]): 4 µg/mL (≈ 4.73 µM) |

Source: patent US9982005B2, “Macrolides and methods of their preparation and use” (President and Fellows of Harvard College, priority 2013, dated 2018)
